Data published in paper PMC8617031, “Development of a BCL-xL and BCL-2 dual degrader with improved anti-leukemic activity,” (Nature Communications, 2021).
Several values for one entry are separate records, joined by “and”; a condition that tells them apart may be missing. Equal values may be shown once. Read-outs that look alike come from different tables or passages of the source.

Columns and labels:
Kasumi-1 cells = assay: Viability (MTS) of Kasumi-1 AML cells; format: cell-based, human; details: Fig. 7c; for Luminescence (raw plate reading): Kasumi, 24h
Hela cells = assay: Viability (MTS) of Hela cells; format: cell-based, human; details: in % (unit assumed)
Experimental: Suspension cells were treated 30 min after seeding, whereas adherent cells were allowed to adhere overnight and were then treated. Compound treatments were prepared in complete cell culture medium and 100 µl of 2× treatment-containing medium were added to each well. Complete cell culture medium without treatment was added in control wells, and wells containing medium without cells served as background. The outer wells of the 96-well plate were not used for treatment and were filled with 250 µl of PBS to reduce evaporation of medium from inner wells. Each compound and/or combination was tested at nine different concentrations with three replicates. The cell viability was measured after 72 h by tetrazolium-based MTS assay. MTS reagent (2 mg ml^–1 stock; cat. no. G1111, Promega) was freshly supplemented with phenazine methosulfate (PMS, 0.92 mg ml^–1 stock, cat. no. P9625, Sigma-Aldrich) in 20:1 ratio, and 20 µl of this mixture was added to each control and treatment well. The cells were incubated for 4 h at 37 °C and 5% CO2, and then the absorbance was recorded at 490 nm using Biotek’s Synergy Neo2 multimode plate reader (Biotek). The average absorbance value of background wells was subtracted from absorbance value of each control and treatment well, and percent cell viability ((At/A0) × 100)) was determined in each treatment well, where At is the absorbance value of the treatment well and A0 is the average absorbance value of control wells after background subtraction. The data were expressed as average percentage cell viability and fitted in non-linear regression curves using GraphPad Prism 7 (GraphPad Software, La Jolla, CA, USA).

His-tagged BCL-2 = biological target: T1, His-tagged BCL-2 (Homo sapiens, UniProt P10415); assay: AlphaScreen competitive binary binding, BCL-2 (biotin-BIM peptide); details: for Alpha signal normalised to Maximum/Minimum (inhibition): in % (unit assumed)
T1 construct: purchased Sigma-Aldrich SRP0186
Experimental: (§1) The reagents were diluted in a buffer containing 250 mM HEPES pH 7.5, 1 M NaCl, 1% BSA, and 0.05% Tween-80. His-tagged BCL-xL (0.5 nM, Cat. No. SRP0187, Sigma-Aldrich) or BCL-2 (1 nM, Cat. No. SRP0186, Sigma-Aldrich) were incubated with serial diluted 753a or 753b and 2 nM biotin-tagged BAD (biotin-[…] amino-terminal, AnaSpec, for BCL-xL) or 10 nM BIM peptides (biotin-[…] N-terminal, AnaSpec, for BCL-2) to a final volume of 40 µl in a 96-well PCR plate. […] After incubation for 2 h, 5 µl 6× His-acceptor beads (Cat. No. AL128M, PerkinElmer) were added to each well at 20 µg/ml final concentration and incubated for 1 h. Then 5 µl streptavidin-donor beads were added (Cat. No. 6760002, PerkinElmer) to each well at 20 µg/ml final concentration and incubated for 45 min. At the end of the incubation period, 17 µl of each sample was transferred in adjacent wells of 384-well proxy plate (Cat. No. 6008280, PerkinElmer). The plate was scanned using the Alpha program on Biotek’s Synergy Neo2 multimode plate reader. The inhibition constant (Ki) was calculated using the non-linear regression, one site, competitive binding, Fit Ki function on GraphPad Prism 9 software, based on experimentally determined dissociation constant (Kd) for each protein–peptide pair.

His-tagged BCL-xL = biological target: T2, His-tagged BCL-xL (Homo sapiens, UniProt Q07817); assay: AlphaScreen competitive binary binding, BCL-xL (biotin-BAD peptide)
T2 construct: purchased Sigma-Aldrich SRP0187
Experimental: as §1

T2 sequence (Q07817 whole entry): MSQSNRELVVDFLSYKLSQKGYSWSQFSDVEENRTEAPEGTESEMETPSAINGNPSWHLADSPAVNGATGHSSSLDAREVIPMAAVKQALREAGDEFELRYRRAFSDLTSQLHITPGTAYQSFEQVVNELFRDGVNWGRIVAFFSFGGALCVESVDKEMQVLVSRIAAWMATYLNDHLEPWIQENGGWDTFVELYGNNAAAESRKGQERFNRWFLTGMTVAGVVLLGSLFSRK
T1 sequence (P10415 whole entry): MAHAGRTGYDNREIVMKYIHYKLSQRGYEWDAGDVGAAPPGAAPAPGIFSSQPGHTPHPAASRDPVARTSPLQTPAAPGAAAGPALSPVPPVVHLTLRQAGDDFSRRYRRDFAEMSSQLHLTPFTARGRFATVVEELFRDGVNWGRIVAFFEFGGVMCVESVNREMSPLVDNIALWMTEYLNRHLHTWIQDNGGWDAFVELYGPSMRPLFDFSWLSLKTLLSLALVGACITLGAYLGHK

- Alpha signal normalised to Maximum/Minimum (inhibition) (His-tagged BCL-2; BCL-2 Rep-1, 0.000305176 uM, 0.000305176 µM): 11.9513
- inhibition at 0.000305176 µM (His-tagged BCL-2; BCL-2 Rep-1, 0.000305176 uM, read-out: Alpha signal normalised to Maximum/Minimum (inhibition)): 15.4%
- Alpha signal normalised to Maximum/Minimum (inhibition) (His-tagged BCL-2; BCL-2 Rep-1, 0.00488281 uM, 0.00488281 µM): 42.8592
- inhibition at 0.00488281 µM (His-tagged BCL-2; BCL-2 Rep-1, 0.00488281 uM, read-out: Alpha signal normalised to Maximum/Minimum (inhibition)): 43%
- Alpha signal normalised to Maximum/Minimum (inhibition) (His-tagged BCL-2; BCL-2 Rep-1, 0.0195312 uM, 0.0195312 µM): 72.1054
- inhibition at 0.0195312 µM (His-tagged BCL-2; BCL-2 Rep-1, 0.0195312 uM, read-out: Alpha signal normalised to Maximum/Minimum (inhibition)): 69.3%
- Alpha signal normalised to Maximum/Minimum (inhibition) (His-tagged BCL-2; BCL-2 Rep-1, 0.078125 uM, 0.078125 µM): 96.9363
- inhibition at 0.078125 µM (His-tagged BCL-2; BCL-2 Rep-1, 0.078125 uM, read-out: Alpha signal normalised to Maximum/Minimum (inhibition)): 96.6%
- Alpha signal normalised to Maximum/Minimum (inhibition) (His-tagged BCL-2; BCL-2 Rep-1, 0.3125 uM, 0.3125 µM): 99.419
- inhibition at 0.3125 µM (His-tagged BCL-2; BCL-2 Rep-1, 0.3125 uM, read-out: Alpha signal normalised to Maximum/Minimum (inhibition)): 100%
- Alpha signal normalised to Maximum/Minimum (inhibition) (His-tagged BCL-2; BCL-2 Rep-1, 1.25 uM, 1.25 µM): 99.6178
- inhibition at 1.25 µM (His-tagged BCL-2; BCL-2 Rep-1, 1.25 uM, read-out: Alpha signal normalised to Maximum/Minimum (inhibition)): 99.6%
- Alpha signal normalised to Maximum/Minimum (inhibition) (His-tagged BCL-2; BCL-2 Rep-1, 5 uM, 5 µM): 99.391
- inhibition at 5 µM (His-tagged BCL-2; BCL-2 Rep-1, 5 uM, read-out: Alpha signal normalised to Maximum/Minimum (inhibition)): 100%
- Alpha signal (raw counts) (His-tagged BCL-2; BCL-2 Rep-2, 0.00488281 uM): 457290 and 444842
- Alpha signal normalised to Maximum/Minimum (inhibition) (His-tagged BCL-2; BCL-2 Rep-2, 0.0195312 uM, 0.0195312 µM): 73.927
- inhibition at 0.0195312 µM (His-tagged BCL-2; BCL-2 Rep-2, 0.0195312 uM, read-out: Alpha signal normalised to Maximum/Minimum (inhibition)): 72.6%
- Alpha signal normalised to Maximum/Minimum (inhibition) (His-tagged BCL-2; BCL-2 Rep-2, 0.078125 uM, 0.078125 µM): 98.4863
- inhibition at 0.078125 µM (His-tagged BCL-2; BCL-2 Rep-2, 0.078125 uM, read-out: Alpha signal normalised to Maximum/Minimum (inhibition)): 98.1%
- Alpha signal normalised to Maximum/Minimum (inhibition) (His-tagged BCL-2; BCL-2 Rep-2, 0.3125 uM, 0.3125 µM): 98.9063
- inhibition at 0.3125 µM (His-tagged BCL-2; BCL-2 Rep-2, 0.3125 uM, read-out: Alpha signal normalised to Maximum/Minimum (inhibition)): 98.5%
- Alpha signal normalised to Maximum/Minimum (inhibition) (His-tagged BCL-2; BCL-2 Rep-2, 1.25 uM, 1.25 µM): 100.524
- inhibition at 1.25 µM (His-tagged BCL-2; BCL-2 Rep-2, 1.25 uM, read-out: Alpha signal normalised to Maximum/Minimum (inhibition)): 101%
- Alpha signal normalised to Maximum/Minimum (inhibition) (His-tagged BCL-2; BCL-2 Rep-2, 5 uM, 5 µM): 100.141
- inhibition at 5 µM (His-tagged BCL-2; BCL-2 Rep-2, 5 uM, read-out: Alpha signal normalised to Maximum/Minimum (inhibition)): 99.9%
- Alpha signal (raw counts) (His-tagged BCL-2; BCL-2 Rep-2, plate row B, 5 uM): 15606 and 13933
- Alpha signal (raw counts) (His-tagged BCL-2; BCL-2 Rep-2, plate row C, 1.25 uM): 9913 and 10759
- Alpha signal (raw counts) (His-tagged BCL-2; BCL-2 Rep-2, plate row D, 0.3125 uM): 27814 and 24179
- Alpha signal (raw counts) (His-tagged BCL-2; BCL-2 Rep-2, plate row E, 0.078125 uM): 30701 and 27663
- Alpha signal (raw counts) (His-tagged BCL-2; BCL-2 Rep-2, plate row F, 0.0195312 uM): 242422 and 231401
- Alpha signal (raw counts) (His-tagged BCL-2; BCL-2 Rep-2, plate row H, 0.0012207 uM): 765240 and 763074
- Alpha signal (raw counts) (His-tagged BCL-2; BCL-2 Rep-2, plate row I, 0.000305176 uM): 762866 and 759346
- Alpha signal (raw counts) (His-tagged BCL-2; BCL-2 Rep-2, plate row J, 7.62939e-5 uM): 726537 and 792609
- Alpha signal (raw counts) (His-tagged BCL-2; BCL-2 Rep-2, plate row K, 1.90735e-5 uM): 756626 and 814053
- IC50 (His-tagged BCL-xL; BCL-xL Rep-1): 0.12 µM
- Ki (His-tagged BCL-xL; BCL-xL Rep-1): 0.0054 µM
- Alpha signal normalised to Maximum/Minimum (inhibition) (His-tagged BCL-xL; BCL-xL Rep-1, 0.000305176 uM, 0.000305176 µM): 20.1617
- inhibition at 0.000305176 µM (His-tagged BCL-xL; BCL-xL Rep-1, 0.000305176 uM, read-out: Alpha signal normalised to Maximum/Minimum (inhibition)): 18.1%
- Alpha signal normalised to Maximum/Minimum (inhibition) (His-tagged BCL-xL; BCL-xL Rep-1, 0.0012207 uM, 0.0012207 µM): 17.8409
SMILES: Cc1ncsc1-c1ccc([C@H](C)NC(=O)[C@@H]2C[C@@H](O)CN2C(=O)[C@@H](NC(=O)CCCCCC(=O)N2CCN(CC[C@H](CSc3ccccc3)Nc3ccc(S(=O)(=O)NC(=O)c4ccc(N5CCN(CC6=C(c7ccc(Cl)cc7)CCC(C)(C)C6)CC5)cc4)cc3S(=O)(=O)C(F)(F)F)CC2)C(C)(C)C)cc1 [DT2216]
- IC50 (Kasumi-1 cells; Homo sapiens, Kasumi 1, 72 h, read-out: IC50, viability of Kasumi-1 cells): 1.15 µM
- Luminescence (raw plate reading) (Kasumi-1 cells; 2um (plate column 11)): 404633 and 365594 and 354853 and 362278
- Luminescence (raw plate reading) (Kasumi-1 cells; 4um (plate column 12)): 138608 and 119804 and 124492 and 119916
- cell viability normalised to control wells (single replicate) (Hela cells; MTS absorbance 490, Conc 0.00137174 uM): 91.7776
- cell viability normalised to control wells (single replicate) (Hela cells; MTS absorbance 490, Conc 0.00411523 uM): 92.3987 and 92.7536
- cell viability normalised to control wells (single replicate) (Hela cells; MTS absorbance 490, Conc 0.037037 uM): 98.4324 and 86.0988
- cell viability normalised to control wells (single replicate) (Hela cells; MTS absorbance 490, Conc 0.111111 uM): 97.9 and 88.8495
- cell viability normalised to control wells (single replicate) (Hela cells; MTS absorbance 490, Conc 0.333333 uM): 93.1973 and 104.022
- cell viability normalised to control wells (single replicate) (Hela cells; MTS absorbance 490, Conc 1 uM): 83.5256 and 94.1733
- cell viability normalised to control wells (single replicate) (Hela cells; MTS absorbance 490, Conc 3 uM): 80.7749
